Source: patent US9221838B2, “Inhibitors of AKT activity” (ALMAC DISCOVERY LIMITED, priority 2009, dated 2015)

What was measured:
Format in all cases: biochemical
AKT1 = molecular target: T1, AKT1 (Homo sapiens, UniProt P31749); assay: AKT Kinase Assay (IMAP fluorescent polarisation) vs AKT1
T1 construct: purchased SignalChem
How it was run: (§1)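 Phosphorylation of FAM-Crosstide detected by IMAP binding and fluorescence polarisation (485/528 nm), with IC50 fitted from % inhibition versus vehicle. Compound was incubated 45 min with enzyme, then reacted 1 h at room temperature with ATP and peptide in Tris/MgCl2/DTT buffer. Dose response had fourteen half-log points.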

AKT3 = molecular target: T2, AKT3 (Homo sapiens, UniProt Q9Y243); assay: AKT Kinase Assay (IMAP fluorescent polarisation) vs AKT3
T2 construct: purchased SignalChem
T2 sequence (Q9Y243 whole entry): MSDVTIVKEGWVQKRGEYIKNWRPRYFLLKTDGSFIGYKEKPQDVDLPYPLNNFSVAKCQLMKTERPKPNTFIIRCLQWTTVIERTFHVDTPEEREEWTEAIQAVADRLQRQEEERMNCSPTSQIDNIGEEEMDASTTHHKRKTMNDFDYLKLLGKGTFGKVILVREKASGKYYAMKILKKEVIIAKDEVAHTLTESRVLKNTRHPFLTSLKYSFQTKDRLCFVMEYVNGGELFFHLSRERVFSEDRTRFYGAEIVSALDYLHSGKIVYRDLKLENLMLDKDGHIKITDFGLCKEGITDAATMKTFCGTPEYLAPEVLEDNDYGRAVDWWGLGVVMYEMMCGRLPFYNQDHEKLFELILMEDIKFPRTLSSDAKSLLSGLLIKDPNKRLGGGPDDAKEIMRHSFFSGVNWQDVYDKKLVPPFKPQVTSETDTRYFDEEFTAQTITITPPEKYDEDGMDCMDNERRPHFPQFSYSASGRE
How it was run: as §1

AKT2 = molecular target: T3, AKT2 (Homo sapiens, UniProt P31751); assay: AKT Kinase Assay (IMAP fluorescent polarisation) vs AKT2
T3 construct: purchased SignalChem
T3 sequence (P31751 whole entry): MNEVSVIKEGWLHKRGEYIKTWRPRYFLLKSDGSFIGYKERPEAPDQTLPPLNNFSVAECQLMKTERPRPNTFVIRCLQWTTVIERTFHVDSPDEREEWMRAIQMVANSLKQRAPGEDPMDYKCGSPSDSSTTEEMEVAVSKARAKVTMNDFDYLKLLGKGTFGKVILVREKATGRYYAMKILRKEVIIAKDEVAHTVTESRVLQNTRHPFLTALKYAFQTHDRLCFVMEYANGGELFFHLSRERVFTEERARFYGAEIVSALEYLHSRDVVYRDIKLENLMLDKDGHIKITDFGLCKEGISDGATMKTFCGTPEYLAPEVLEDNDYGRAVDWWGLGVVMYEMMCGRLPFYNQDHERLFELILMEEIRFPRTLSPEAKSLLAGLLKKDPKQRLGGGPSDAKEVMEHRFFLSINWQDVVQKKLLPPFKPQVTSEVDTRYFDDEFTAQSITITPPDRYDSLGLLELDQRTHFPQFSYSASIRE
How it was run: as §1

T1 sequence (P31749 whole entry): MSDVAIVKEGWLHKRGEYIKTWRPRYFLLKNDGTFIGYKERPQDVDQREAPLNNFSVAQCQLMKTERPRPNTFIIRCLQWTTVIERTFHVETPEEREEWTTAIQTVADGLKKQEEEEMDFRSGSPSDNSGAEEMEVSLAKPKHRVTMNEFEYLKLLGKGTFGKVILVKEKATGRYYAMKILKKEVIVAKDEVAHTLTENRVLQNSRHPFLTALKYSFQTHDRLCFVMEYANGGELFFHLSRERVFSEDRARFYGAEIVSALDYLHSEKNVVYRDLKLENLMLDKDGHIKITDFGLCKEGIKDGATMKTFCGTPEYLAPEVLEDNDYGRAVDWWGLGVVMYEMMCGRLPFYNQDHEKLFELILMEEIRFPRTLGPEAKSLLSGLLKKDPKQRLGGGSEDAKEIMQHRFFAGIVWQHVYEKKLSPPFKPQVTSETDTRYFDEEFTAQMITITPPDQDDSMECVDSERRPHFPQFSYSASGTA

| SMILES | IC50 (AKT1) [nM] | IC50 (AKT3) [nM] | IC50 (AKT2) [nM] |
| --- | --- | --- | --- |
| CCCN1C(=O)COc2nc(-c3ccc(C4(N)CCC4)cc3)c(-c3ccccc3)cc21 [Example 105, 6-(4-(1-aminocyclobutyl)phenyl)-7-phenyl-1-propyl-1H-pyrido[2,3-b][1,4]oxazin-2(3H)-one] | ≤ 100 | 1000 to 10000 | ≤ 100 |
| NC1(c2ccc(-c3nc4c(cc3-c3ccccc3)N(CCF)C(=O)CCN4)cc2)CCC1 [Example 117, 7-(4-(1-aminocyclobutyl)phenyl)-1-(2-fluoroethyl)-8-phenyl-4,5-dihydro-1H-pyrido[2,3-b][1,4]diazepin-2(3H)-one] | 1000 to 10000 | 1000 to 10000 | 1000 to 10000 |
| C[C@]1(O)C[C@@](N)(c2ccc(-c3nc4c(cc3-c3ccccc3)N(CC(F)(F)F)C(=O)CO4)cc2)C1 [Example 152, 6-(4-((1r,3r)-1-amino-3-hydroxy-3-methylcyclobutyl)phenyl)-7-phenyl-1-(2,2,2-trifluoroethyl)-1H-pyrido[2,3-b][1,4]oxazin-2(3H)-one] | 100 to 1000 | 1000 to 10000 | ≤ 100 |
| NC1(c2ccc(-c3nc4c(cc3-c3ccccc3)C(=O)COC4)cc2)CCC1 [Example 127, 2-(4-(1-aminocyclobutyl)phenyl)-3-phenyl-6,8-dihydro-5H-pyrano[3,4-b]pyridin-5-one] | 1000 to 10000 | > 10000 | > 10000 |
| NC1(c2ccc(-c3nc4c(cc3-c3ccccc3)-n3cnnc3CO4)cc2)CCC1 [Example 39, 1-(4-(8-phenyl-4H-pyrido[2,3-b][1,2,4]triazolo[4,3-d][1,4]oxazin-7-yl)phenyl)cyclobutanamine] | 100 to 1000 | > 10000 | 1000 to 10000 |
| CC(CO)(CO)CN1C(=O)COc2nc(-c3ccc(C4(N)CCC4)cc3)c(-c3ccccc3)cc21 [Example 106, 6-(4-(1-aminocyclobutyl)phenyl)-1-(3-hydroxy-2-(hydroxymethyl)-2-methylpropyl)-7-phenyl-1H-pyrido[2,3-b][1,4]oxazin-2(3H)-one] | 100 to 1000 | 1000 to 10000 | 100 to 1000 |
| CCN1C(=O)COc2nc(-c3ccc([C@]4(N)C[C@](C)(O)C4)cc3)c(-c3ccccc3)cc21 [Example 143, 6-(4-((1r,3r)-1-amino-3-hydroxy-3-methylcyclobutyl)phenyl)-1-ethyl-7-phenyl-1H-pyrido[2,3-b][1,4]oxazin-2(3H)-one] | ≤ 100 | 100 to 1000 | ≤ 100 |
| COCC1Oc2nc(-c3ccc(C4(N)CCC4)cc3)c(-c3ccccc3)cc2N(C)C1=O (stereo not drawn) [Example 96, 6-(4-(1-aminocyclobutyl)phenyl)-3-(methoxymethyl)-1-methyl-7-phenyl-1H-pyrido[2,3-b][1,4]oxazin-2(3H)-one] | 100 to 1000 | > 10000 | 1000 to 10000 |
| NC1(c2ccc(-c3nc4c(cc3-c3ccccc3)-n3c(CF)nnc3CO4)cc2)CCC1 [Example 120, 1-(4-(1-(fluoromethyl)-8-phenyl-4H-pyrido[2,3-b][1,2,4]triazolo[4,3-d][1,4]oxazin-7-yl)phenyl)cyclobutanamine] | ≤ 100 | 100 to 1000 | 100 to 1000 |
| NC1(c2ccc(-c3nc4c(cc3-c3ccccc3)-n3c(nnc3C3CC3)CO4)cc2)CCC1 [Example 110, 1-(4-(1-cyclopropyl-8-phenyl-4H-pyrido[2,3-b][1,2,4]triazolo[4,3-d][1,4]oxazin-7-yl)phenyl)cyclobutanamine] | 100 to 1000 | 100 to 1000 | 100 to 1000 |
| CCCc1nnc2n1-c1cc(-c3ccccc3)c(-c3ccc(C4(N)CCC4)cc3)nc1OC2 [Example 69, 1-(4-(8-phenyl-1-propyl-4H-pyrido[2,3-b][1,2,4]triazolo[4,3-d][1,4]oxazin-7-yl)phenyl)cyclobutanamine] | ≤ 100 | 1000 to 10000 | 100 to 1000 |
| CN1c2cc(-c3ccccc3)c(-c3ccc(C4(N)CCC4)cc3)nc2OCS1(=O)=O [Example 73, 6-(4-(1-aminocyclobutyl)phenyl)-1-methyl-7-phenyl-1H-pyrido[3,2-e][1,3,4]oxathiazine 2,2-dioxide] | 1000 to 10000 | > 10000 | 100 to 1000 |
| NC1(c2ccc(-c3nc4c(cc3-c3ccccc3)N(Cc3cccnc3)C(=O)CO4)cc2)CCC1 [Example 46, 6-(4-(1-aminocyclobutyl)phenyl)-7-phenyl-1-(pyridin-3-ylmethyl)-1H-pyrido[2,3-b][1,4]oxazin-2(3H)-one] | 100 to 1000 | 100 to 1000 | 100 to 1000 |
| N#CCN1C(=O)C(CCO)Oc2nc(-c3ccc(C4(N)CCC4)cc3)c(-c3ccccc3)cc21 (stereo not drawn) [Example 78] | 100 to 1000 | > 10000 | 100 to 1000 |
| NC1(c2ccc(-c3nc4c(cc3-c3ccccc3)NC(=O)NC4)cc2)CCC1 [Example 87, 6-(4-(1-aminocyclobutyl)phenyl)-7-phenyl-3,4-dihydropyrido[3,2-d]pyrimidin-2(1H)-one] | 100 to 1000 | > 10000 | 1000 to 10000 |
| Cc1nnc2n1-c1cc(-c3ccccc3)c(-c3ccc(C4(N)CCC4)cc3)nc1OC2 [Example 63, 1-(4-(1-methyl-8-phenyl-4H-pyrido[2,3-b][1,2,4]triazolo[4,3-d][1,4]oxazin-7-yl)phenyl)cyclobutanamine] | 100 to 1000 | > 10000 | 1000 to 10000 |
| CCc1nnc2n1-c1cc(-c3ccccc3)c(-c3ccc(C4(N)CCC4)cc3)nc1OC2 [Example 47, 1-(4-(1-ethyl-8-phenyl-4H-pyrido[2,3-b][1,2,4]triazolo[4,3-d][1,4]oxazin-7-yl)phenyl)cyclobutanamine] | ≤ 100 | 1000 to 10000 | 100 to 1000 |
| NC1(c2ccc(-c3nc4c(cc3-c3ccccc3)N(Cc3ccccn3)C(=O)CO4)cc2)CCC1 [Example 56, 6-(4-(1-aminocyclobutyl)phenyl)-7-phenyl-1-(pyridin-2-ylmethyl)-1H-pyrido[2,3-b][1,4]oxazin-2(3H)-one] | 100 to 1000 | 100 to 1000 | 100 to 1000 |
| CC1Oc2nc(-c3ccc(C4(N)CCC4)cc3)c(-c3ccccc3)cc2N(CC#N)C1=O (stereo not drawn) [Example 81, 2-(6-(4-(1-aminocyclobutyl)phenyl)-3-methyl-2-oxo-7-phenyl-2,3-dihydro-1H-pyrido[2,3-b][1,4]oxazin-1-yl)acetonitrile] | ≤ 100 | 1000 to 10000 | 100 to 1000 |
| NC(=O)c1nnc2n1-c1cc(-c3ccccc3)c(-c3ccc(C4(N)CCC4)cc3)nc1OC2 [Example 119, 7-(4-(1-aminocyclobutyl)phenyl)-8-phenyl-4H-pyrido[2,3-b][1,2,4]triazolo[4,3-d][1,4]oxazine-1-carboxamide] | 100 to 1000 | 1000 to 10000 | 100 to 1000 |
| NC1(c2ccc(-c3nc4c(cc3-c3ccccc3)N(CCF)C(=O)CO4)cc2)CCC1 [Example 86, 6-(4-(1-aminocyclobutyl)phenyl)-1-(2-fluoroethyl)-7-phenyl-1H-pyrido[2,3-b][1,4]oxazin-2(3H)-one] | 100 to 1000 | 1000 to 10000 | ≤ 100 |
| N#CCCCN1C(=O)COc2nc(-c3ccc(C4(N)CCC4)cc3)c(-c3ccccc3)cc21 [Example 64, 4-(6-(4-(1-aminocyclobutyl)phenyl)-2-oxo-7-phenyl-2,3-dihydro-1H-pyrido[2,3-b][1,4]oxazin-1-yl)butanenitrile] | 100 to 1000 | 1000 to 10000 | 100 to 1000 |
| CC(C#N)N1C(=O)COc2nc(-c3ccc(C4(N)CCC4)cc3)c(-c3ccccc3)cc21 (stereo not drawn) [Example 54, 2-(6-(4-(1-aminocyclobutyl)phenyl)-2-oxo-7-phenyl-2,3-dihydro-1H-pyrido[2,3-b][1,4]oxazin-1-yl)propanenitrile] | 100 to 1000 | 1000 to 10000 | 100 to 1000 |
| CC(=O)CN1C(=O)COc2nc(-c3ccc(C4(N)CCC4)cc3)c(-c3ccccc3)cc21 [Example 36, 6-(4-(1-aminocyclobutyl)phenyl)-1-(2-oxopropyl)-7-phenyl-1H-pyrido[2,3-b][1,4]oxazin-2(3H)-one] | 100 to 1000 | 1000 to 10000 | 1000 to 10000 |
| NC1(c2ccc(-c3nc4c(cc3-c3ccccc3)N(C3CCOCC3)C(=O)CO4)cc2)CCC1 [Example 65, 6-(4-(1-aminocyclobutyl)phenyl)-7-phenyl-1-(tetrahydro-2H-pyran-4-yl)-1H-pyrido[2,3-b][1,4]oxazin-2(3H)-one] | 1000 to 10000 | > 10000 | 1000 to 10000 |
| NC1(c2ccc(-c3nc4c(cc3-c3ccccc3)N(C3CCC3)C(=O)CO4)cc2)CCC1 [Example 61, 6-(4-(1-aminocyclobutyl)phenyl)-1-cyclobutyl-7-phenyl-1H-pyrido[2,3-b][1,4]oxazin-2(3H)-one] | 1000 to 10000 | 1000 to 10000 | 100 to 1000 |
| NC1(c2ccc(-c3nc4c(cc3-c3ccccc3)N(CCF)C(=O)N(CCF)C4)cc2)CCC1 [Example 109, 6-(4-(1-aminocyclobutyl)phenyl)-1,3-bis(2-fluoroethyl)-7-phenyl-3,4-dihydropyrido[3,2-d]pyrimidin-2(1H)-one] | ≤ 100 | 100 to 1000 | ≤ 100 |
| CN1C(=O)COc2nc(-c3ccc(C4(N)CCC4)cc3)c(CC3CC3)cc21 [Example 133, 6-(4-(1-aminocyclobutyl)phenyl)-7-(cyclopropylmethyl)-1-methyl-1H-pyrido[2,3-b][1,4]oxazin-2(3H)-one] | 1000 to 10000 | > 10000 | > 10000 |
| CC(C)CN1C(=O)COc2nc(-c3ccc(C4(N)CCC4)cc3)c(-c3ccccc3)cc21 [Example 102, 6-(4-(1-aminocyclobutyl)phenyl)-1-isobutyl-7-phenyl-1H-pyrido[2,3-b][1,4]oxazin-2(3H)-one] | 100 to 1000 | 1000 to 10000 | ≤ 100 |
| NC1(c2ccc(-c3nc4c(cc3-c3ccccc3)-c3n[nH]c(=O)n3CC4)cc2)CCC1 [Example 26, 8-(4-(1-aminocyclobutyl)phenyl)-9-phenyl-5,6-dihydro-[1,2,4]triazolo[3,4][1,6]naphthyridin-3(2H)-one] | ≤ 100 | > 10000 | 1000 to 10000 |
